Laboratory results: patent publication US8329699B2, “Pyrrolopyrazine kinase inhibitors” (Hoffmann-La Roche Inc., priority 2010, dated 2012)
Where “and” joins values, the source holds several entries; their conditions need not be identical. Identical values can stand only once.

Experiments:
[1] = biological target: T1, JAK3: Recombinant human kinase domain (h-jak3-sf21-c) (Homo sapiens, UniProt P52333); assay: Determination of IC50 of Janus Kinase (JAK) inhibition, JAK3 (radioactive end-point assay with 33P-ATP); format: biochemical; conditions: ATP 1.5 uM, peptide 50 uM, 20 minutes, room temperature
T1 construct: JAK3: Recombinant human kinase domain from Millipore (Cat # 14-629) or prepared; purchased Millipore 14-629
Description: Determination of IC50 of Janus Kinase (JAK) Inhibition:
Enzymes and peptide substrate used are described below: • JAK1: Recombinant human kinase domain from Invitrogen (Cat # PV4774) • JAK3: Recombinant human kinase domain from Millipore (Cat # 14-629) or prepared. • JAK2: Recombinant human kinase domain from Millipore (Cat # 14-640) • Substrate: N-terminally biotinylated 14-mer peptide derived from activation loop of JAK1 with sequence of the peptide substrate: Biotin-[…]
Assay conditions used are described below: • Assay Buffer: JAK Kinase Buffer: 50 mM Hepes [pH 7.2], 10 mM MgCl2, 1 mM DTT, 1 mg/mL BSA. The assay is carried out in this buffer. • Assay Format The kinase activity of all three JAK kinases is measured using a radioactive, end-point assay and with trace amounts of^33P-ATP. The assays are carried out in 96-well polypropylene plates. Experimental Method:
All concentrations are final in the reaction mixture and all incubations are carried at room temperature. Assay steps are described below: • 1) Compounds are serially diluted in 100% DMSO typically at a 10× starting concentration of 1 mM. Final concentration of DMSO in the reaction is 10%. • 2) Compounds are preincubated with enzyme (0.5 nM JAK3 (commercially available), 0.2 nM JAK3 (prepared), 1 nM JAK2, 5 nM JAK1) for 10 minutes. • 3) Reactions are initiated by the addition of a cocktail of the two substrates (ATP and peptide premixed in the JAK Kinase Buffer). In the JAK2/JAK3 assays, ATP and the peptide are used at concentrations of 1.5 uM and 50 uM, respectively. JAK1 assay is carried out at an ATP concentration of 10 uM and a peptide concentration of 50 uM. • 4) The duration of the assay for JAK2 and JAK3 is 20 minutes. JAK1 assay is carried out for 40 minutes. With all three enzymes, reactions are terminated by the addition of 0.5M EDTA to a final concentration of 100 mM. • 5) 25 ul of terminated reactions are transferred to 150 ul of a 7.5% (v/v) slurry of streptavidin-coated sepharose beads in MgCl2- and CaCl2-free 1× Phosphate Buffered Saline containing 50 mM of EDTA in 96-well, 1.2 um MultiScreen-BV filter plates. • 6) After a 30-minute incubation, the beads are washed under vacuum with the following buffers: • a. 3 to 4 washes with 200 ul of 2M NaCl. • b. 3 to 4 washes with 200 ul of 2M NaCl plus 1% (v/v) phosphoric acid. • c. 1 wash with water. • 7) Washed plates are dried in a 60° C. oven for between 1 to 2 hours. • 8) 70 ul of Microscint 20 scintillation fluid is added to each well of filter plates and after at least 30 minutes of incubation, radioactive counts are measured in a Perkinelmer microplate scintillation counter.

T1 sequence (P52333 822-1111 limits assumed): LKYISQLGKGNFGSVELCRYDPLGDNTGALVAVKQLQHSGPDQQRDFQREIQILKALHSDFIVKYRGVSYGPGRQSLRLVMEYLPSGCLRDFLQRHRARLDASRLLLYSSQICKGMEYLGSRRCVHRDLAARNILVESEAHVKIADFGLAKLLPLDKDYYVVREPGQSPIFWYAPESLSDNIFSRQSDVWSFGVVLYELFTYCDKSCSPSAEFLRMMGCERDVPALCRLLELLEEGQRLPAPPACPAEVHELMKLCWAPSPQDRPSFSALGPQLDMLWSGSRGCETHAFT

SMILES	IC50 [1] [nM]	melting point
N#Cc1cccc(NC(=O)c2c[nH]c3ncc(C4CC4)nc23)c1 [Compound I-5, 2-Cyclopropyl-5H-pyrrolo[2,3-b]pyrazine-7-carboxylic acid (3-cyano-phenyl)-amide]	735	272 to 274 °C
O=C(NC1CCOCC1)c1c[nH]c2ncc(C3CC3)nc12 [Compound I-1, 2-Cyclopropyl-5H-pyrrolo[2,3-b]pyrazine-7-carboxylic acid (tetrahydro-pyran-4-yl)-amide]	42	> 300 °C
CC(C)(O)C1(NC(=O)c2c[nH]c3ncc(C4CC4)nc23)CCC1 [Compound I-13, 2-Cyclopropyl-5H-pyrrolo[2,3-b]pyrazine-7-carboxylic acid [1-(1-hydroxy-1-methyl-ethyl)-cyclobutyl]-amide]	42.7	264 to 266 °C
N#CC1(NC(=O)c2c[nH]c3ncc(C4CC4)nc23)CC1 [Compound I-10, 2-Cyclopropyl-5H-pyrrolo[2,3-b]pyrazine-7-carboxylic acid (1-cyano-cyclopropyl)-amide]	524	> 300 °C
O=C(NC1(C(=O)C2CC2)CCCC1)c1c[nH]c2ncc(C3CC3)nc12 [Compound I-19, 2-Cyclopropyl-5H-pyrrolo[2,3-b]pyrazine-7-carboxylic acid (1-cyclopropanecarbonyl-cyclopentyl)-amide]	1040	296 to 299 °C
O=C(NC1CCCCC1)c1c[nH]c2ncc(Oc3ccc(F)cc3F)nc12 [Compound I-34, 2-(2,4-Difluoro-phenoxy)-5H-pyrrolo[2,3-b]pyrazine-7-carboxylic acid cyclohexylamide]	424	245 to 247 °C
O=C(NC1CCCCC1)c1c[nH]c2ncc(Oc3ccccc3)nc12 [Compound I-33, 2-Phenoxy-5H-pyrrolo[2,3-b]pyrazine-7-carboxylic acid cyclohexylamide]	153	255 to 257 °C
CS(=O)(=O)N1CCC[C@H](NC(=O)c2c[nH]c3ncc(C4CC4)nc23)C1 [Compound I-30, 2-Cyclopropyl-5H-pyrrolo[2,3-b]pyrazine-7-carboxylic acid ((S)-1-methanesulfonyl-piperidin-3-yl)-amide]	55.5	278 to 281 °C
O=C(Nc1cccc(C(F)(F)F)c1)c1c[nH]c2ncc(C3CC3)nc12 [Compound I-8, 2-Cyclopropyl-5H-pyrrolo[2,3-b]pyrazine-7-carboxylic acid (3-trifluoromethyl-phenyl)-amide]	963	271.1 to 272.9 °C
Cc1ccc(C#N)cc1NC(=O)c1c[nH]c2ncc(C3CC3)nc12 [Compound I-9, 2-Cyclopropyl-5H-pyrrolo[2,3-b]pyrazine-7-carboxylic acid (5-cyano-2-methyl-phenyl)-amide]	157	280 to 284 °C

Stronger by IC50 [1], values ahead:

IC50 [1] [nM]	melting point	SMILES
22	228 to 230 °C	CCCS(=O)(=O)N1CCCC(NC(=O)c2c[nH]c3ncc(C4CC4)nc23)C1 (stereo not drawn) [Compound I-28, 2-Cyclopropyl-5H-pyrrolo[2,3-b]pyrazine-7-carboxylic acid [1-(propane-1-sulfonyl)-piperidin-3-yl]-amide]
26.3	280 to 281.1 °C and 280 to 281 °C	N#CCC1(NC(=O)c2c[nH]c3ncc(C4CC4)nc23)CCCC1 [Compound I-26, 2-Cyclopropyl-5H-pyrrolo[2,3-b]pyrazine-7-carboxylic acid (1-cyanomethyl-cyclopentyl)-amide]
8	284 to 287 °C	CS(=O)(=O)N1CCCC(NC(=O)c2c[nH]c3ncc(C4CC4)nc23)C1 (stereo not drawn) [Compound I-24, 2-Cyclopropyl-5H-pyrrolo[2,3-b]pyrazine-7-carboxylic acid (1-methanesulfonyl-piperidin-3-yl)-amide]
13.3	> 300 °C	O=C(NC1CCCC1)c1c[nH]c2ncc(C3CC3)nc12 [Compound I-23, 2-Cyclopropyl-5H-pyrrolo[2,3-b]pyrazine-7-carboxylic acid cyclopentylamide]
38.9	228 to 230 °C	CC(C)(O)C1(NC(=O)c2c[nH]c3ncc(C4CC4)nc23)CCCCC1 [Compound I-14, 2-Cyclopropyl-5H-pyrrolo[2,3-b]pyrazine-7-carboxylic acid [1-(1-hydroxy-1-methyl-ethyl)-cyclohexyl]-amide]
17.3	266 to 269 °C	CCS(=O)(=O)N1CCCC(NC(=O)c2c[nH]c3ncc(C4CC4)nc23)C1 (stereo not drawn) [Compound I-27, 2-Cyclopropyl-5H-pyrrolo[2,3-b]pyrazine-7-carboxylic acid (1-ethanesulfonyl-piperidin-3-yl)-amide]
9.8	> 300 °C	CC1(C)COCC1NC(=O)c1c[nH]c2ncc(C3CC3)nc12 (stereo not drawn) [Compound I-16, 2-Cyclopropyl-5H-pyrrolo[2,3-b]pyrazine-7-carboxylic acid (4,4-dimethyl-tetrahydro-furan-3-yl)-amide]
12.9	260 to 262 °C	C[C@]1(O)CCC[C@@H]1NC(=O)c1c[nH]c2ncc(C3CC3)nc12 (relative stereo) [Compound I-11, 2-Cyclopropyl-5H-pyrrolo[2,3-b]pyrazine-7-carboxylic acid ((trans)-2-hydroxy-2-methyl-cyclopentyl)-amide]
